Experimental data as given in patent EP4775208A1, “USE OF PRMT5 INHIBITOR IN TREATMENT OF TUMORS OR CANCERS” (Apeiron Therapeutics (Hong Kong) Ltd., priority 2023, dated 2025).

Target: hERG ion channel (Homo sapiens, UniProt Q12809)
Assay: hERG ion channel inhibition experiment (manual patch clamp, HEK293)
Type: cell-based
Details: HEK293 cells stably expressing hERG, n=2
Procedure: III. hERG Ion Channel Inhibition Experiment
The compounds used in this experiment are specific embodiments of the present invention, with reference to compound AMG473 as an example from Amgen's patent WO 2022/169948A1, identified as example 473.
2. Cell Line and Cell Culture
Stably expressing hERG ion channel HEK293 cell line (Catalog: K1236) was purchased from Invitrogen. This cell line was cultured in a medium containing 85% DMEM, 10% dialyzed fetal bovine serum, 0.1 mM non-essential amino acid solution, 100 U/mL penicillin-streptomycin solution, 25 mM HEPES, 5 µg/mL blasticidin, and 400 µg/mL geneticin. […]
• 1) Place glass slides containing HEK293 cells in the perfusion chamber of the micro-manipulation station. • 2) Under an Olympus IX71 or IX73 inverted microscope, position suitable cells in the central field of view using a ×10 objective. […] The peak of the tail current represents the size of the hERG current. • 9) The hERG current induced by the test compound is continuously recorded for 120 seconds before administration to assess the stability of the tested cells in producing hERG currents. […] Record the last 5 hERG current values after the recorded current stabilizes, and take their average as the final current value at a specific concentration. […]

hERG ion channel, sequence (Q12809 whole entry): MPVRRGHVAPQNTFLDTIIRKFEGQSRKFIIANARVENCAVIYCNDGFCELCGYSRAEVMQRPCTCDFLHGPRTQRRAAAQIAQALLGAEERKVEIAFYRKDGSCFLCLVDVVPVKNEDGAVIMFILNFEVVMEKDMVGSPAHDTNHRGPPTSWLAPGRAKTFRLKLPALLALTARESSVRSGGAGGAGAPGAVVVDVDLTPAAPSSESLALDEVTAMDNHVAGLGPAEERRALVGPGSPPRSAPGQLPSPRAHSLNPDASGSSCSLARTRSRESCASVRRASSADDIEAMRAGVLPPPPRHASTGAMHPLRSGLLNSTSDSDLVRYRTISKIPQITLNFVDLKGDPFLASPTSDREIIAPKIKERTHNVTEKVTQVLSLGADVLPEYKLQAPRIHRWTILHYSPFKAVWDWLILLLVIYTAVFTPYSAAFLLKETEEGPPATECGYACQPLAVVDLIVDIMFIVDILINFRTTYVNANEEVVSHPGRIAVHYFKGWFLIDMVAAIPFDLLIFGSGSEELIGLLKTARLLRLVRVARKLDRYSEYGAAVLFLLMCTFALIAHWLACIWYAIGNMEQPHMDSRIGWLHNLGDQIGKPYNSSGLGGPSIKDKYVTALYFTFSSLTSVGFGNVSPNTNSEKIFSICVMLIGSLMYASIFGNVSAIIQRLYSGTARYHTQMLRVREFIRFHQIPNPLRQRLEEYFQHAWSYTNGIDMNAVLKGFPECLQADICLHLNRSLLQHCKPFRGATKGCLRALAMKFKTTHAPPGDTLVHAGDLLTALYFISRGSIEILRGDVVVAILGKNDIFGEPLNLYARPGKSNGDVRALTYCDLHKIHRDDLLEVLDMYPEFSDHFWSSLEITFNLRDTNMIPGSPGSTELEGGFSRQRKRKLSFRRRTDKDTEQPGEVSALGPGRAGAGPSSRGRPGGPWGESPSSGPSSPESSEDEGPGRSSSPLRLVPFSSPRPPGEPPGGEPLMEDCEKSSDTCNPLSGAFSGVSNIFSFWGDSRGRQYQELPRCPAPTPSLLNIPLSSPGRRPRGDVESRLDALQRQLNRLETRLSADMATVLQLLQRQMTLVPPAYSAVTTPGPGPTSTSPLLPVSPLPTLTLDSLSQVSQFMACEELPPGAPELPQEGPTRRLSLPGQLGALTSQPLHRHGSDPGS

(S)-4-amino-7-fluoro-N-methyl-N-(6-(triflu oromethyl)-2,3-dihydr obenzofuran-3-yl)imi dazo[1,5-a]quinoxalin e-8-carboxamide [Example 29]
IC50: 11.4 µM
